According to EP0703222A1, “3-AMINOAZEPINE COMPOUND AND PHARMACEUTICAL USE THEREOF” (YOSHITOMI PHARMACEUTICAL INDUSTRIES, LTD., priority 1993, dated 1994):

Columns and labels:
CCK-A receptor = target: T1, CCK-A receptor (Rattus norvegicus, UniProt P30551); test: CCK-A receptor binding test (pancreas); details: for Ki: rat pancreas membranes, 125I-CCK-8, 20°C, 30 minutes, read-out: binding affinity (Ki,nM) CCK-A; for affinity for CCK-A receptor (in words): summary of the binding results in the text
T1 construct: The whole pancreas was removed from a male rat; from tissue; host or cells: rat pancreas membrane homogenate
T1 sequence (P30551 1-444): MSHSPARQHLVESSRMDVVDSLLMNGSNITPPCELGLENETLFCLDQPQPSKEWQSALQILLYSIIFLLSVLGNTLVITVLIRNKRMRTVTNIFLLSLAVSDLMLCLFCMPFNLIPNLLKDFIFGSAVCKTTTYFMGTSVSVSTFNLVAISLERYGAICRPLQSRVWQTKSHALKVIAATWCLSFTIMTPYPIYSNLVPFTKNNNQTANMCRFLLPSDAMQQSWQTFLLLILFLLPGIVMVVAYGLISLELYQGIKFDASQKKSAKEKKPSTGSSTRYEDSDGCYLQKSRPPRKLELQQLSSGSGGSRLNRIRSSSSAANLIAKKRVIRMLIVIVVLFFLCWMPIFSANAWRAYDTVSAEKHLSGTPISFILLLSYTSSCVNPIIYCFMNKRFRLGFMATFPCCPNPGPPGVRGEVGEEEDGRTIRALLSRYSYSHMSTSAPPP
Procedure: Experimental Example 1 : CCK-A receptor binding test (pancreas)
The whole pancreas was removed from a male rat. The fat tissues were removed and the pancreas was homogenized (Brinkman Polytron PT20) in 50 mM Tris hydrochloric acid (pH 7.5). The homogenate was filtered through a nylon cloth (120 mesh) and centrifuged at 50,000 × g for 12 minutes. The obtained sediment was homogenized in Tris buffer as in the above and centrifuged. The sediment was suspended in a buffer for binding assay [50 mM Tris-HCl (pH 7.2) containing 5 mM magnesium chloride, 5 mM dithiothreitol, 2 mg/ml bovine serum albumin, 0.1 mg/ml bacitracin and 0.14 mg/ml trypsin inhibitor (soybean)] and used as a receptor source.
(§1) For binding assay, 50 µl of a buffer (for total binding), unlabeled CCK-8 sulfate (for nonspecific binding) having a final concentration of 1 5M or a test compound (for determining inhibition of ¹²⁵I-CCK binding) and 50 µl of ¹²⁵I-CCK-8 (63-67 TBq/mmol, 40,000-50,000 cpm) were added to a membrane suspension (450 µl, containing 100 µg protein). The reaction mixture was incubated at 20°C for 30 minutes, filtered by suction through a glass fiber filter (Whatman GF/B), and immediately thereafter washed 3 times with ice-cooled Tris buffer (2.5 ml). The radioactive concentration on the filter was measured.
(§2) Inhibition (%) = 100 -((binding when compound added - nonspecific binding))/((total binding - nonspecific binding))× 100 [formula]

CCK-B receptor = target: T2, CCK-B receptor (Rattus norvegicus, UniProt P30553); test: CCK-B receptor binding test (brain); details: for Ki: rat cerebral cortex membranes, 125I-CCK-8, 20°C, 30 minutes, read-out: binding affinity (Ki,nM) CCK-B; for selectivity (A/B): ratio CCK-A / CCK-B binding affinity
T2 construct: cerebral cortex from rat was prepared and suspended in a buffer; from tissue; host or cells: rat cerebral cortex membrane suspension
T2 sequence (P30553 1-452): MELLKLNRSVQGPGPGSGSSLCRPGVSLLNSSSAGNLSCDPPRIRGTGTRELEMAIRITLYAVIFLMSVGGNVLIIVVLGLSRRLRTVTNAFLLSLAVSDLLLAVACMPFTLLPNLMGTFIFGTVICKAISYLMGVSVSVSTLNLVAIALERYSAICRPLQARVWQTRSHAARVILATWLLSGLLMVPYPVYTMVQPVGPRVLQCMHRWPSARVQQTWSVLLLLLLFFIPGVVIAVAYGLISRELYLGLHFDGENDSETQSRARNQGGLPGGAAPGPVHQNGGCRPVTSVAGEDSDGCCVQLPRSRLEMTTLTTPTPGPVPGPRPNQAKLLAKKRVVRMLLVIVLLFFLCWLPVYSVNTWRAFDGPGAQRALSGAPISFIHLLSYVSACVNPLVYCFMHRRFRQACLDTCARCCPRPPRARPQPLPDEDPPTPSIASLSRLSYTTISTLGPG
Procedure: Experimental Example 2 : CCK-B receptor binding test (brain)
as §1, with “In the case of the central nervous system, cerebral cortex from rat was prepared and suspended in a buffer, pH 6.5, containing 5 mM magnesium chloride, 1 mM EGTA [ethylene glycol bis(2-aminoethylether)tetraacetic acid], 360 mM sodium chloride, 15 mM potassium chloride, 20 mM HEPES (N-2-hydroxyethylpiperazine-N'-2-ethanesulfonic acid) and 0.25 mg/ml bacitracin. For” for “For”, “µM” for “5M”, “40,000 - 50,000” for “40,000-50,000”
as §2

| SMILES | Ki (CCK-A receptor) [nM] | Ki (CCK-B receptor) [nM] | selectivity (A/B) (CCK-B receptor) | affinity for CCK-A receptor (in words) (CCK-A receptor) |
| --- | --- | --- | --- | --- |
| CCOC(=O)CN1C(=O)C(NC(=O)Nc2cccc(C)c2)C=C(c2ccccc2)c2ccccc21 (single isomer, unassigned; (-)) [Example 46, (-)-1-(1-ethoxycarbonylmethyl-2-oxo-5-phenyl-2,3-dihydro-1H-1-benzazepin-3-yl)-3-(3-methylphenyl)urea] | 100 | 0.87 | 110 |  |
| COc1ccc(NC(=O)NC2C=C(c3ccccc3)c3ccccc3N(CC(=O)c3ccccc3C)C2=O)cc1 (single isomer, unassigned; (-)) [Example 68, (-)-1-(4-methoxyphenyl)-3-(1-(2'-methylphenacyl)-2-oxo-5-phenyl-2,3-dihydro-1H-1-benzazepin-3-yl)urea] | 150 | 1.1 | 140 |  |
| CN1C(=O)C(NC(=O)c2cc3ccccc3[nH]2)C=C(c2ccccc2)c2ccccc21 (single isomer, unassigned; (+)) [Example 36, (+)-N-(1-methyl-2-oxo-5-phenyl-2,3-dihydro-1H-1-benzazepin-3-yl)-2-indolecarboxamide] | 4.7 | > 1000 | <0.0047 | strong, selective affinity for CCK-A receptor |
| Cc1ccc(NC(=O)NC2C=C(c3ccccc3)c3ccccc3N(CC(=O)c3ccccc3C)C2=O)cc1 (single isomer, unassigned; (-)) [Example 64, (-)-1-(1-(2'-methylphenacyl)-2-oxo-5-phenyl-2,3-dihydro-1H-1-benzazepin-3-yl)-3-(4-methylphenyl)urea] | 200 | 1.1 | 180 |  |
| CCOC(=O)CN1C(=O)C(NC(=O)Nc2cccc(OC)c2)C=C(c2ccccc2)c2ccccc21 (single isomer, unassigned; (-)) [Example 52, (-)-1-(1-ethoxycarbonylmethyl-2-oxo-5-phenyl-2,3-dihydro-1H-1-benzazepin-3-yl)-3-(3-methoxyphenyl)urea] | 110 | 0.92 | 120 |  |
| Cc1ccccc1C(=O)CN1C(=O)C(NC(=O)c2cc3ccccc3[nH]2)C=C(c2ccccc2)c2ccccc21 (single isomer, unassigned; (+)) [Example 81, (+)-N-(1-(2'-methylphenacyl)-2-oxo-5-phenyl-2,3-dihydro-1H-1-benzazepin-3-yl)-2-indole carboxamide] | 42 | > 1000 | <0.042 | strong, selective affinity for CCK-A receptor |
| Cc1cccc(NC(=O)N[C@@H]2N=C(c3ccccc3)c3ccccc3N(C)C2=O)c1 [Example L-365260, (R)-N-(2,3-dihydro-1-methyl-2-oxo-5-phenyl-1H-1,4-benzodiazepin-3-yl)-N'-(3-methylphenyl)urea, reference compound] | 390 | 19 | 21 |  |
| Cc1ccccc1NC(=O)NC1C=C(c2ccccc2)c2ccccc2N(CC(=O)c2ccccc2C)C1=O (single isomer, unassigned; (-)) [Example 66, (-)-1-(1-(2'-methylphenacyl)-2-oxo-5-phenyl-2,3-dihydro-1H-1-benzazepin-3-yl)-3-(2-methylphenyl)urea] | 310 | 2.5 | 124 |  |
| Cc1ccccc1C(=O)CN1C(=O)C(NC(=O)Nc2ccccc2Cl)C=C(c2ccccc2)c2ccccc21 (single isomer, unassigned; (-)) [Example 74, (-)-1-(2-chlorophenyl)-3-(1-(2'-methylphenacyl)-2-oxo-5-phenyl-2,3-dihydro-1H-1-benzazepin-3-yl)urea] | 290 | 2.4 | 120 |  |
| CCOC(=O)CN1C(=O)C(NC(=O)Nc2ccc(C)cc2)C=C(c2ccccc2)c2ccccc21 (single isomer, unassigned; (-)) [Example 48, (-)-1-(1-ethoxycarbonylmethyl-2-oxo-5-phenyl-2,3-dihydro-1H-1-benzazepin-3-yl)-3-(4-methylphenyl)urea] | 210 | 2.1 | 100 |  |
